Like-named read-outs stand apart in the source and are kept apart here.
Experiments:
[1] = tested on: Ca1u-6 (Kras^Q61K); assay: Ca1u-6 (Kras^Q61K) antiproliferative activity (CellTiter Glo); assay type: cell-based, human; details: Ca1u-6 (Kras^Q61K) cells, three days, read-out: Calu-6 anti-proliferative activity IC50
Protocol: Experiments for Ca1u-6 (Kras^Q61K) Antiproliferative Activity
(1) cell medium: 89% EMEM, 10% fetal bovine serum and 1% penicillin-streptomycin;
(2) the original medium in the cell culture flask was removed; the cells were digested with trypsin and then counted; and the cell suspension was diluted with the medium to a cell density of 3.75×10^4 cells per milliliter required for plating;
(§1) (3) 100 μL of the medium was added to the outermost circle of wells of the cell plate; 80 μL of the cell suspension was added to other wells; and the plate was cultured overnight in a 37° C. incubator with 5% CO2.
the compounds were subjected to a gradient dilution and then supplemented using Echo; and the cell plate was put back into the incubator for three days.
(§2) adding CTG and reading the plate involve adding 20 μL of CellTiterGlo to each well of the cell plate, shaking the plate for 10 min in the dark, and reading the plate on Victor Nivo.

[2] = tested on: ERK phosphorylation in Ca1u-6(Kras^Q61K); assay: Ca1u-6 (Kras^Q61K) ERK phosphorylation inhibition (HTRF); assay type: cell-based, human; details: 1 hour with compound, read-out: Calu-6 ERK phosphorylation inhibitory activity IC50
Protocol: Experiments for Ca1u-6(Kras^Q61K) ERK Phosphorylation Inhibition
(§3) 1) cells were resuscitated, cultured to a logarithmic growth phase, then digested with trypsin and seeded in a 96-well plate, and the plate was incubated overnight in an incubator;
(§4) 2) serial gradients of compounds dissolved in DMSO were added to the 96-well plate, which was then put back into the incubator for 1 hour;
3) the cell plate was taken out; and the cells were incubated and lysed by adding cell lysates (containing 1% blocking peptide) for 30 minutes at room temperature;
(§5) 4) 16 μL of cell lysates per well was transferred to the HTRF plate, and then 4 μL of the mixed antibody solution formulated thereby was added;
(§6) 5) after overnight incubation, the plate was read on Envision; the fitted curves were obtained according to ratio (the ratio of Ex665/Ex615 fluorescence intensity); and EC50 was calculated with the four-parameter fitting formula, i.e., Y=Bottom+(Top−Bottom)/(1+10^((LogEC50−X)*Hill Slope)) on Graphpad.

[3] = molecular target: T1, cRAF protein (Homo sapiens, UniProt P04049); assay: c-RAF enzyme inhibitory activity (ADP-Glo, MEK1 substrate); assay type: biochemical; details: MEK1 and ATP substrate
T1 construct: purchased Creative BioMart RAF1-416H
T1 sequence (P04049 whole entry): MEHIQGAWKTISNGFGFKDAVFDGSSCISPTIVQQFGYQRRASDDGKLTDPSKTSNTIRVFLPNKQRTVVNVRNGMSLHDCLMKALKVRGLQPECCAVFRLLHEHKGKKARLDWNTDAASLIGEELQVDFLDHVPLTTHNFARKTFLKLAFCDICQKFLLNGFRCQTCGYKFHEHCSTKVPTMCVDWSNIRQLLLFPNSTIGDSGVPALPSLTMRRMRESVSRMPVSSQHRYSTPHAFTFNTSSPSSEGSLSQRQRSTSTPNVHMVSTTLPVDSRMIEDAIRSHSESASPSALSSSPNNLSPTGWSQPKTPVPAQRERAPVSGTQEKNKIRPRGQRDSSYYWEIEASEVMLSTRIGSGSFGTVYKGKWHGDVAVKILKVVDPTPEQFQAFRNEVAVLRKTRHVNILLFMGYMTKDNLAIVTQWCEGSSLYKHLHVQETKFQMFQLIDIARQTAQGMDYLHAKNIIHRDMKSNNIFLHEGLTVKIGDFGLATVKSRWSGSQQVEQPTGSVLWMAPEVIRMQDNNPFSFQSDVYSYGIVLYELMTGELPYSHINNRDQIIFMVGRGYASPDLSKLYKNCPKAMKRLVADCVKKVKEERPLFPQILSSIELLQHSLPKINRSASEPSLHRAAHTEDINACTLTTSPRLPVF
Protocol: Experiments for c-RAF Enzyme Inhibitory Activity
the compounds to be tested and reference compounds were diluted to 100 μM with DMSO, and the compounds were further subjected to a 3-fold gradient dilution using Echo to obtain target plates with 11 concentration gradients.
1) buffer formulation: 50 mM Tris-HCl (pH 7.4), 3.5 mM MgCl2, 150 mM NaCl, 1 mM DTT, 0.02% Triton X-100, H2O;
7) after 1 hour, the plate was read on Envision.

[4] = tested on: HCT-116(Kras^G13D); assay: HCT-116 (Kras^G13D) antiproliferative activity (CellTiter Glo); assay type: cell-based; details: HCT-116 (Kras^G13D) cells, three days
Protocol: Experiments for HCT-116(Kras^G13D) Antiproliferative Activity
(1) cell medium: 89% Mc'Coy 5A, 10% fetal bovine serum and 1% penicillin-streptomycin;
(2) the original medium in the cell culture flask was removed; the cells were digested with trypsin and then counted; and the cell suspension was diluted with the medium to a cell density of 2.5×10^4 cells per milliliter required for plating;
as §1
the compounds were subjected to a gradient dilution and then supplemented; and the cell plate was put back into the incubator for three days.
as §2

[5] = tested on: ERK phosphorylation in HCT116(Kras^G13D); assay: HCT116 (Kras^G13D) ERK phosphorylation inhibition (HTRF); assay type: cell-based, human; details: 1 hour with compound, read-out: HCT-116 ERK phosphorylation inhibitory activity IC50
Protocol: Experiments for HCT116(Kras^G13D) ERK Phosphorylation Inhibition
as §3, §4
3) the cell plate was taken out; the supernatant was removed; and the cells were incubated and lysed by adding cell lysates (containing 1% blocking peptide) for 30 minutes at room temperature;
as §5, §6

[6] = In vivo pharmacokinetics in mice; details: mouse, plasma, female CD-1 mice; for AUC: read-out: Curve area AUC
Source text: Experiments for In Vivo Pharmacokinetics in Mice
2) Experimental animals: 4 female CD-1 mice, which were divided into 2 groups, 2 mice in each group;
3) Drug formulation: An appropriate amount of the drug was weighed and dissolved in an aqueous solution of solutol (5% by volume), DMSO (5% by volume) and PEG-300 (25% by volume) for injection administration. An appropriate amount of the drug was weighed and dispersed in a 5% solutol aqueous solution (80% by volume), and then PEG-400 (20% by volume) was added; the mixture was mixed well and used for intragastric administration. Solutol is polyethylene glycol-15-hydroxystearate.
The animals in the first group were administered the compound at a dose of 2 mg/kg at a concentration of 1 mg/mL by intravenous administration. Plasma samples were collected from the animals at 0.117, 0.333, 1, 2, 4, 7 and 24 hours after administration. The animals in the second group were administered the compound at a dose of 100 mg/kg at a concentration of 10 mg/mL by intragastric administration. Plasma samples were collected from the animals at 0.0833, 0.25, 0.5, 1, 2, 4, 6, 8 and 24 hours after administration. The drug concentration at each point was determined by the LC-MS/MS method, and kinetic parameters of the tested drug were as follows: […]

[7] = tested on: human lung cancer Ca1u-6 subcutaneous xenograft tumor; assay: In vivo pharmacodynamics, human lung cancer Ca1u-6 subcutaneous xenograft tumor BALB/c nude mouse model; details: 100 mg/kg PO QD × 21 days, Ca1u-6 xenograft, BALB/c nude mice
Protocol: When the cell saturation was 80% to 90%, and the number reached the requirement, the cells were collected, counted and inoculated.
Tumor diameter was measured twice a week with a vernier caliper.
TGI (%) reflected the tumor growth inhibition rate.

[8] = Homo sapiens, Calu-6, 1 h, Ca1u-6 (Kras^Q61K) cells
[9] = Homo sapiens, HCT-116, 1 h, HCT116 (Kras^G13D) cells
[10] = Homo sapiens, HCT-116, HCT116 (Kras^G13D) cells

IC50 [2, 8] [nM] | IC50 [3] [nM] | IC50 ([4]; Homo sapiens, 72 h) [nM] | SMILES | IC50 ([1]; Homo sapiens, Calu-6, 72 h) [nM] | also measured
180 | 1.2 | 800 | Cc1ccc(NC(=O)c2ccnc(C(F)(F)F)c2)cc1-c1cc(OC[C@H](O)CO)nc(C23CCOCC2C3)c1 (stereo partly drawn) [Compound 9] | 6400 | –
– | 2.5 | 5300 | COC[C@@H](O)COc1cc(-c2cc(NC(=O)c3ccnc(C(F)(F)F)c3)ccc2C)cc(C23CCOCC2C3)n1 (stereo partly drawn) [Compound 10] | 7100 | –
430 | 2.8 | 800 | Cc1ccc(NC(=O)c2ccnc(C(F)(F)F)c2)cc1-c1cc(OCCO)nc(C23CCOCC2C3(F)F)c1 (stereo not drawn) [Compound 11] | 1100 | –
390 | – | 200 | Cc1ccc(NC(=O)c2ccnc(C(F)(F)F)c2)cc1-c1cc(N2CC(O)C2)nc(C23CCOCC2C3)c1 (stereo not drawn) [Compound 13] | 200 | –
330 | – | 400 | Cc1ccc(NC(=O)c2ccnc(C(F)(F)F)c2)cc1-c1cc(OCCO)nc(C23CCOCC2(C#N)C3)c1 (stereo not drawn) [Compound 14] | 3500 | –
330 | – | 900 | Cc1ccc(NC(=O)c2ccnc(C(F)(F)F)c2)cc1-c1cc(OCC(C)(C)O)nc(C23CCOCC2C3)c1 (stereo not drawn) [Compound 15] | 4700 | –

Further lines, the compound ahead of its results:

SMILES | IC50 [2, 8] [nM] | IC50 [3] [nM] | IC50 ([4]; Homo sapiens, 72 h) [nM] | IC50 ([1]; Homo sapiens, Calu-6, 72 h) [nM] | also measured
Cc1ccc(NC(=O)c2ccnc(C(F)(F)F)c2)cc1-c1cc(OCCO)nc(C23CCOCC2C3)c1 (single isomer, unassigned) [Compound 1A] | 220 | 2.5 | 600 | 1200 | IC50 [5, 9]: 140 nM
Cc1ccc(NC(=O)c2ccnc(C(F)(F)F)c2)cc1-c1cc(OCCO)nc(C23CCOCC2C3)c1 (single isomer, unassigned) [Compound 1B] | – | 2 | – | – | IC50 [1]: 960 nM; IC50 ([2]; Ca1u-6 (Kras^Q61K) cells): 250 nM; IC50 [4]: 600 nM; IC50 ([5]; HCT116 (Kras^G13D) cells): 220 nM
Cc1ccc(NC(=O)c2ccnc(C(F)(F)F)c2)cc1-c1cc(N(C)CCO)nc(C23CCOCC2C3)c1 (stereo not drawn) [Compound 2] | – | 2.7 | 2300 | 1100 | IC50 [5, 9]: 210 nM
Cc1ccc(NC(=O)c2ccnc(C(F)(F)F)c2)cc1-c1cc(NCCO)nc(C23CCOCC2C3)c1 (stereo not drawn) [Compound 3] | – | 1.7 | 2300 | 1400 | IC50 [5, 9]: 190 nM
Cc1ccc(NC(=O)c2ccnc(C(F)F)c2)cc1-c1cc(OCCO)nc(C23CCOCC2C3)c1 (stereo not drawn) [Compound 5] | 170 | 1 | 2600 | 4600 | –
Cc1ccc(NC(=O)c2ccnc(C(C)(F)F)c2)cc1-c1cc(OCCO)nc(C23CCOCC2C3)c1 (stereo not drawn) [Compound 6] | 220 | 0.9 | 600 | 1000 | –
Cc1ccc(NC(=O)c2ccnc(C(F)(F)F)c2)cc1-c1cc(SCCO)nc(C23CCOCC2C3)c1 (stereo not drawn) [Compound 7] | – | 2.5 | – | – | –
Cc1ccc(NC(=O)c2ccnc(C(F)(F)F)c2)cc1-c1cc(C23CCOCC2C3)cc(OCCO)n1 (stereo not drawn) [Compound 8] | 350 | 1.1 | 1100 | 1000 | –
Cc1ccc(NC(=O)c2ccnc(C(F)(F)F)c2)cc1-c1cc(OCCO)nc([C@]23COC[C@H]2C3)c1 [Compound 16B] | – | – | 1100 | 600 | IC50 ([2]; Homo sapiens, Calu-6, Ca1u-6 (Kras^Q61K) cells): 490 nM; bioavailability ([6]; oral, intragastric 100 mg/kg versus intravenous 2 mg/kg, read-out: Bioavailability F): 131%; Tmax ([6]; po, intragastric administration 100 mg/kg, read-out: Maximum concentration time Tmax): 1 h; clearance ([6]; intravenous administration 2 mg/kg, read-out: Clearance rate Cl): 25.8 mL/min/kg; Vd ([6]; intravenous administration 2 mg/kg, read-out: Distribution volume Vd): 2.75 L/kg; half-life ([6]; intravenous administration 2 mg/kg, read-out: Half-life T1/2 (converted)): 1.43 h; AUC ([6]; po, intragastric administration 100 mg/kg): 178 µM·h; Cmax ([6]; po, intragastric administration 100 mg/kg, read-out: Maximum concentration Cmax): 25 µM; AUC ([6]; intravenous administration 2 mg/kg): 2.61 µM·h; C0 ([6]; intravenous administration 2 mg/kg, read-out: Initial concentration C0): 2.01 µM; relative tumor proliferation rate T/C [7]: 11.4%; tumor growth inhibition rate TGI [7]: 99.1%; IC50 [5, 10]: 180 nM
Cc1ccc(NC(=O)c2ccnc(C(F)(F)F)c2)cc1-c1cc(OCCO)nc(C23COCC2C3)c1 (stereo not drawn) [Compound 16] | – | – | 2200 | 1300 | IC50 [5, 10]: 160 nM

Reference: patent US20230046018A1, “BIARYL COMPOUND AS PAN-RAF KINASE INHIBITOR” (MEDSHINE DISCOVERY INC., priority 2019, published 2023)
